Test results published in patent publication US10066212B2, “Method for preparing induced pluripotent stem cells using synthetic peptide” (Seoul National University R&DB Foundation, priority 2015, dated 2018).

Legend:
Type in all cases: cell-based
[1] = system: human dermal fibroblasts introduced with reprogramming genes; assay: Oct4 embryonic stem cell marker expression by immunofluorescence (IF); conditions: 10 μM peptide for 10 days; compared with cells without peptide and control peptides C1 or C2; FIG. 2
Method: Using the same method as in Example 2-1, reprogramming genes were introduced into the cells by an electroporation method in human dermal fibroblasts and divided in a 6-well coated with vitronectin. Thereafter, expression levels of Oct4 as a marker of embryonic stem cells were compared with each other by using an immunofluorescence (IF) method. The cells treated with 10 μM of each peptide for 10 days were fixed with 4% paraformaldehyde for 10 minutes at room temperature, and then 0.5% Triton-X 100 was added and they were cultured for 15 minutes at room temperature to pass through a cell wall and to penetrate into nuclei in the cells, and blocked with a buffer PBS in which 3% bovine serum albumin (BSA) was dissolved for 30 minutes. An Oct4 primary antibody was diluted with a buffer PBS in which 1% BSA was dissolved at a ratio of 1:100 and reacted for 16 hrs at 4° C. and a secondary antibody bound with fluorescein isothiocyanate (FITC) was diluted at a ratio of 1:200 and reacted for 1 hr at room temperature. Finally, a dye (Hoechst 33342, blue) for staining nuclei was treated for 10 minutes at room temperature and washed with a buffer PBS, and colonies with the clearest fluorescent expression in the well were photographed with a confocal scanning microscope (IX 70, Olympus Co., Tokyo, Japan).

[2] = system: human dermal fibroblasts introduced with reprogramming genes; assay: Mesenchymal-epithelial transition (MET) by THY1/EPCAM flow cytometry (FACS); conditions: 10 days of peptide treatment; compared with control peptides C1 or C2; FIG. 3
Method: Using the same method as in Example 2-1, reprogramming genes were introduced into the cells by an electroporation method in human dermal fibroblasts and divided in a 6-well coated with Vitronectin. After 10 days of peptide treatment in which the cells were stabilized, the cells were collected in a 15 ml Falcon tube by using a scrapper and then centrifuged for 3 minutes at 1500 rpm. The cells were washed with a buffer (PBS) and then 1.5×10^5 cells were transferred to each tube by using cold PBS. THY1 (cat: sc-59398) and EPCAM (cat: ab20160) antibodies at a concentration of 10 μg/ml were diluted with a 3% BSA/PBS solution in the tube and reacted for 30 minutes at 4° C., and then centrifuged three times for 5 minutes at 1500 rpm. After washing with cold PBS, the cells were transferred to a round tube and analyzed by flow cytometry (FACS). Before measuring samples, a control reference value was fixed using THY1 for human dermal fibroblasts and EPCAM for a human mammary epithelial cell (HMEC).

[3] = system: human dermal fibroblasts (hDF) introduced with reprogramming genes; assay: Colony number of induced pluripotent stem cells by alkaline phosphatase (AP) staining; conditions: for dedifferentiation induction, graph counting and quantifying the number of colonies / AP-stained colonies: 10 μM peptide, 10 days at 24-hr intervals, FIG. 1; for AP-stained colonies: compared with cells without peptide and control peptides C1 or C2; for AP staining clarity: group treated with peptide, reported with FIG. 2
Description: In order to verify the dedifferentiation induction efficiency of each peptide, the DNAs of reprogramming genes Oct3/4, Sox2, c-Myc, Klf4, and Lin28 were introduced to human dermal fibroblasts (hDF) of 1.5×10^5/well on a 6-well coated with […] of vitronectin recombinant human protein (VTN-N) by an electroporation method. According to a known method, the reprogramming genes were divided into three groups and cloned into three different episomal vectors and expressed together with p53 shRNA(pCXLE-hOCT3/4-shp53, pCXLE-hSK, and pCXLE-hUL) to enhance the establishment efficiency of dedifferentiation of stem cells (Okita, K. et al., Nat. Methods. 8(5):409-12, 2011). The cells introduced with the reprogramming genes were cultured in an Eagle's minimal essential medium (EMEM, ATCC) and the medium was replaced at 24-hr intervals until cell confluency became 50%. When the confluency became 50%, 10 μM of a dedifferentiation induction-promoting peptide and a control peptide were treated, respectively, and the medium was replaced with Essential 8 Medium and the peptides were treated at the same time as the medium replacement every 24 hrs. The peptide was treated for 10 days at 24-hr intervals, and in order to verify dedifferentiation efficiency per peptide, alkaline phosphatase (AP), known as a marker of embryonic stem cells, was used. For AP staining, an alkaline phosphatase detection kit(Milipore) was used. The medium was removed, 4% paraformaldehyde was added to the cells and they were immobilized for 2 minutes, a Naphthol/Fast Red Violet staining agent was added in a well and reacted at room temperature in a dark space for 20 minutes or more, and then the staining agent was washed with Dulbecco's phosphate buffered saline (DPBS) and the number of stained colonies was verified with a microscope.

Sequence | Oct4 fluorescence expression (IF) [1] | change of mesenchymal shape of dermal fibroblasts to epithelial shape (THY1/EPCAM, FACS) [2] | dedifferentiation induction, graph counting and quantifying the number of colonies [3] | AP-stained colonies [3] | AP staining clarity [3]
GKCSTRGRKMCRRKK [Peptide P3] | more fluorescence was expressed | significantly changed to an epithelial shape | more efficiently induced dedifferentiation | more colonies were stained | clearer
GKCSTRGRKCMRRKK (Functional Peptide P2) [peptide P1 with the fifth cysteine of C terminal substituted with methionine] | more fluorescence was expressed | significantly changed to an epithelial shape | more efficiently induced dedifferentiation | more colonies were stained | clearer
GKCSTRGRKCCRRKK (Functional Peptide P1) [dedifferentiation induction-promoting functional peptide] | more fluorescence was expressed | significantly changed to an epithelial shape | more efficiently induced dedifferentiation | more colonies were stained | clearer
